Laboratory results published in patent US6001810A, “Methods for treating retroviral infection” (Eli Lilly and Company, priority 1990, dated 1999).
Non-standard residues stand in square brackets, D forms with d. Residues, ends and D or L forms follow the SMILES beside them. Phe(4-NH2) = Nc1ccc(C[C@H](N)C(=O)O)cc1; Sta = CC(C)C[C@H](N)[C@@H](O)CC(=O)O

How the values were obtained:
MT-2 cells = assay type: cell-based
Experimental: (§1) Quantitative evaluation of the viral inhibition were performed on the T-cell lymphoblastoid cell lines MT-2 (Harada et al., 1985, Science 229:563-566) and CEM (Nara and Fischinger, 1988, Nature 332:469-470). The cells were infected with the HTLV-IIIB strain of HIV-1 from the supernatant fluid of infected human T-lymphocyte cell line H9 (Popovic, M. et al., 1984, Science 224:497-500). Each of these three cell lines are publicly available from the National Institutes of Health (NIH) AIDS Research and Reference Reagent Program. The H9/HTLC-IIIB cell line is available under catalogue number 231, while CEM cell line is available under catalogue number 117 and the MT-2 cell line is available under the catalogue number 237. MT-2 and CEM cells were grown in RPMI 1640 medium supplemented with 10% (v/v) fetal calf serum, 100 U/ml penicillin, 100 μg/ml streptomycin and 25 mM HEPEs buffer. H9 cells were grown in the same medium except 20% fetal calf serum was used. The peptides were diluted in the medium used for MT-2 and CEM cells. Cell cultures were maintained in disposable tissue culture labware at 37° C. in a humidified atmosphere of 5% CO2 in air.
(§2) The inhibitors were dissolved in DMSO at 40 mg/ml or sterile water at 2 mg/ml, then dilutions were made in medium. The dilutions were added to micro-titer plates in 100 μl/well aliquots so that the high drug concentration for each screen was 100 μg/ml after the addition of cells to the well.
(§3) Susceptible MT-2 and CEM cells were grown and the cell population determined by a trypan blue viable cell count. The desired total number of cells were placed in a sterile, disposable 50 ml conical centrifuge tube and virus was added to give an MOI (Multiplicity of Infection) of 0.03 TCID50 /cell (Tissue Culture Infectious Dose) on MT-2 cells and approximately 0.12 TCID50 /cell on CEM cells. Fresh medium was added to adjust the cell density to 1×10^5 cells/ml, then the virus-cell suspension was incubated at 37° C. for 1 to 2 hours until plating. Uninfected controls cell were prepared in the same manner but without the addition of virus. Infected and uninfected cells were added to plates in 100 μl/well aliquots to give a starting cell number of 1×10^4 cells/well. The plates were incubated for seven days in a humidified atmosphere of 5% CO2 in air.
Reagents for colorimetric evaluation of cell viability were prepared by mixing the tetrazolium reagent, XTT, and phenazine methosulfate (PMS) to final concentrations of 200 μg/ml and 0.02 mM, respectively. […] The plates were read with the sealers in place in a Vmax Plate Reader® at 450 nm and 650 nm. The cytopathic effect (CPE) and percentage of cell viability were then calculated.

CEM cells = assay type: cell-based
Experimental: as §1, §2, §3
Reagents for colorimetric evaluation of cell viability were prepared by mixing the tetrazolium reagent, XTT, and phenazine methosulfate (PMS) to final concentrations of 200 μg/ml and 0.02 mM, respectively. Fifty microliters of the XTT-PMS solution was added to each well of the microtiter plates, then the plates were incubated in the CO2 incubator for another four hours. The lids were removed from the plates and replaced with adhesive plate sealers. The plates were read with the sealers in place in a Vmax Plate Reader® at 450 nm and 650 nm. The cytopathic effect (CPE) and percentage of cell viability were then calculated.
The activity and cytotoxicity of several other peptides were also assayed in CEM cells using the same procedure as described above. These assays also included toxicity and activity levels of both 25% and 50%.

Q: With `CC(C)C[C@H](NC(=O)C[C@H](O)[C@H](CC(C)C)NC(=O)[C@@H](NC(=O)[C@H](Cc1ccccc1)NC(=O)[C@@H]1CCCN1C(=O)[C@H](Cc1ccc(N)cc1)NC(=O)[C@@H]1CCCN1)C(C)C)C(=O)N[C@@H](Cc1ccccc1)C(=O)N[C@@H](Cc1ccc(N)cc1)C(N)=O` [P-1, H-Pro paF Pro Phe Val Statine Leu Phe paF NH2] (H-P[Phe(4-NH2)]PFV[Sta]LF[Phe(4-NH2)]-NH2) as the compound, how does the “MTC50 (minimum cytotoxic drug concentration that reduces cell viability to 50%)” value (MT-2 cells) read?
A: > 100 µg/mL

Q: What about the “MTC50 (minimum cytotoxic drug concentration that reduces cell viability to 50%)” value (CEM cells) of the same compound?
A: > 100 µg/mL
